Consider 72 compounds from PubChem BioAssay AID179 (DTP/NCI, 2004).

Where “and” joins values, the source holds several entries; their conditions need not be identical. Equal values may be shown once. Calls of active or inactive are those of the source.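 How the source made its calls: active means compounds giving half or more protection of infected cells from virus-caused growth loss, again on retest; inactive means the rest.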

The test concerns CEM cells HIV-1 protection, formazan growth assay. In words: NCI AIDS Antiviral Assay. The following applies: for IC50: measured here: growth of uninfected CEM cells. The gist of the method: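 Category rules: moderately active means at least 50% protection on retest, and confirmed active means 100% protection reproducibly. The underlying data came from a formazan growth assay in HIV-1-infected CEM cells.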

For orientation: EC50 means the concentration needed to bring the measured effect to its halfway point. The IC50 is the midpoint of a concentration-inhibition curve. High values mean a need for much substance, low ones inhibition by little substance. Take `Nc1ccc(C(=O)NN2C(=O)C(Cl)C2c2ccccc2Cl)cc1` (stereo unspecified): the EC50 is more than 200 µM and the IC50 amounted to 3.31 µM.

With `Cc1cc(Cc2cc(C)c(O)c(Br)c2)cc(Br)c1O`, the EC50 was more than 200 µM and the concentration for half-maximal inhibition (IC50) was 1.58 µM.

In the case of `Cc1[nH]c2nccn2c(=O)c1CCCl`, the EC50 was more than 200 µM and the 50% inhibitory concentration (IC50) stood at 11.5 µM.

Turning to `COCCN(C(=O)c1ccccc1)C1CCC(=O)c2[nH]c3ccccc3c21` (stereo unspecified), the EC50 is more than 200 µM and the IC50 was found to be 3.63 µM.

As to `Cn1c2ccccc2c2nnc(N/N=C/c3ccncc3)nc21`, the EC50 is more than 200 µM and the IC50 was more than 200 µM.

Take `O=C1NC(=O)/C(=C/c2ccc(S(=O)(=O)N/N=C\C(O)C(O)C(O)C(O)CO)cc2)N1` (stereo unspecified): the EC50 is more than 200 µM; the IC50 was 126 µM and > 200 µM.

`O=C1c2cccc3cc([N+](=O)[O-])cc(c23)C(=O)N1CCN1CCCC1`: the EC50 was more than 200 µM and the IC50 worked out at 0.0832 µM.

For the compound `COc1ccc(/C=C/C(=O)c2nc3ccccc3n2C)cc1`, the EC50 was more than 200 µM and the half-maximal inhibitory concentration (IC50) is 26.9 µM.

Take `COc1ccc(-c2[nH]c3ccccc3c2CCNS(=O)(=O)c2ccc(C)cc2)cc1`: the result was inactive.

For the compound `CCN(CC)C1Oc2cc3c(cc2C(c2cc(OC)c(O)c(OC)c2)C1C)OCO3` (stereo unspecified), the EC50 is more than 200 µM and the half-inhibitory concentration (IC50) was 1.29 µM.

Regarding `O=C(Nc1nc2ccsc2s1)c1ccccc1`, the EC50 is more than 501 µM and the IC50 was more than 501 µM.

For `COc1ccc(/C=C/C(=O)C(C)(C)C)cc1OC`, the EC50 was more than 200 µM and the IC50 came to 39.8 µM.

As for `CC(C)(C)C(=O)C(C(=O)C(C)(C)C)C(=O)C(C)(C)C`, the outcome was inactive.

Consider `CC1(C)OC(CCC#N)CN1C(=O)OCc1ccccc1` (stereo unspecified), for which the EC50 was more than 200 µM and the IC50 came out at 135 µM.

Take `CN=c1sc2nc(C#N)c(C#N)nc2n1C`: the EC50 is more than 200 µM and the half-inhibitory concentration (IC50) stood at 10.2 µM.

Turning to `O=C(c1ccccc1)N1CCC(Nc2nccs2)O1` (stereo unspecified), the EC50 is more than 200 µM and the IC50 is more than 200 µM.

Turning to `NCCNCCN1C(=O)c2cccc3cccc(c23)C1=O`, the EC50 was more than 200 µM and the half-inhibitory concentration (IC50) amounted to 7.59 µM.

For the compound `CC1CC(C)(C)N2CCC(C(=O)N3Cc4cc5ccccc5nc4C3)C2O1` (stereo unspecified), the EC50 is more than 200 µM and the half-inhibitory concentration (IC50) is more than 200 µM.

Take `CCN1CCC(O)(c2ccc(Oc3ccc(Cl)cc3)cc2)C(C(=O)c2ccc(Oc3ccc(Cl)cc3)cc2)C1` (stereo unspecified): the EC50 was more than 200 µM and the IC50 was 7.59 µM.

Turning to `CN(/N=C/C=N/N(C)C1=NCCN1)C1=NCCN1`, the EC50 was more than 200 µM and the IC50 was more than 200 µM.

`Cc1c(C)c2ccc3c(c2oc1=O)[C@@H](OC(=O)C12CCC(C)(C(=O)O1)C2(C)C)[C@@H](OC(=O)C12CCC(C)(C(=O)O1)C2(C)C)C(C)(C)O3` (stereo partly specified): the EC50 is 0.245 µM and the IC50 stood at 123 µM.

Turning to `O=C1CSC(c2cccc([N+](=O)[O-])c2)N1c1ccc(-c2ccc(-n3c(-c4ccccc4)nc4ccccc4c3=O)cc2)cc1` (stereo unspecified), the EC50 was more than 200 µM and the IC50 amounted to 28.2 µM.

Consider `O=[N+]([O-])C(/C=C(\Cl)[N+](=O)[O-])=C1Nc2ccccc2N1`, for which the EC50 is more than 200 µM and the IC50 was found to be 35.5 µM.

On to `O=C1CC(CC(O)C(O)CO)CC(=O)N1` (stereo unspecified), for which the EC50 was more than 200 µM and the IC50 is more than 200 µM.

Take `O=C1C(O)=C(c2ccccc2)S(=O)(=O)C1c1ccccc1` (stereo unspecified): the EC50 was more than 200 µM and the half-inhibitory concentration (IC50) was 79.4 µM.

For `CC(NC(=O)C(N)CC(=O)O)NC(=O)N(C)C(C)(C)C` (stereo unspecified), the EC50 is more than 200 µM and the half-maximal inhibitory concentration (IC50) was more than 200 µM.

For `COc1ccc(S(=O)(=O)N/N=C(\C)CN2C(=O)c3ccccc3C2=O)cc1OC`, the EC50 is more than 437 µM and the IC50 was more than 437 µM.

With `Cc1ccc(S(=O)(=O)N2CC3(CN(S(=O)(=O)c4ccc(C)cc4)CC4(C2)OCCO4)OCCO3)cc1`, the EC50 is more than 200 µM and the IC50 was determined as 85.1 µM.

Turning to `Cc1n[nH]c(=O)n1-c1cccnc1`, the EC50 was more than 200 µM and the IC50 is more than 200 µM.

As for `CN(C)c1ccc(/C=c2\[nH]c(=O)/c(=C\c3ccc(N(C)C)cc3)[nH]c2=O)cc1`, the EC50 was more than 50.1 µM and the half-inhibitory concentration (IC50) was more than 50.1 µM.

Regarding `CCOC(=O)C(=O)Cc1cnc2ccccc2n1`, the EC50 was more than 53.7 µM and the 50% inhibitory concentration (IC50) is more than 53.7 µM.

In the case of `CCOC(=O)/C(=C\c1ccc(F)cc1)C(C)=O`, the EC50 was more than 398 µM and the IC50 is 79.4 µM.

In the case of `CC1=NOCC(=O)N1`, the EC50 was more than 2190 µM and the IC50 is more than 2190 µM.

As for `CN(C)c1ccc(-c2[nH]c(=O)c3ccccc3[n+]2C)cc1`, the EC50 is more than 200 µM and the IC50 was 66.1 µM.

On to `Cc1ccc(NC(=O)CC/C(CC(=O)C(C)(C)C)=N\NC(=O)C[n+]2ccccc2)cc1C`, for which the EC50 is more than 75.9 µM and the IC50 was more than 75.9 µM.

On to `O=Cc1ccccc1OCCOc1cc(OCCOc2ccccc2C=O)c(OCCOc2ccccc2C=O)cc1OCCOc1ccccc1C=O`, for which the EC50 is more than 1.41 µM and the half-maximal inhibitory concentration (IC50) was more than 1.41 µM.

In the case of `COC(=O)C(Cc1ccccc1)NC(=O)C(CCC(=O)OCc1ccccc1)NC(=O)OC(C)(C)C` (stereo unspecified), the EC50 is more than 200 µM and the IC50 is 28.8 µM.

In the case of `Clc1cccc(Cl)c1C1SCc2nc3ncccc3n21` (stereo unspecified), the 50% effective concentration (EC50) was 32.4 µM and the 50% inhibitory concentration (IC50) turned out to be 105 µM.

With `CCOC(=O)Cc1nnc2n(-c3ccccc3)c(=O)c3ccccc3n12`, the EC50 is more than 100 µM and the IC50 was more than 100 µM.

For `O=[N+]([O-])c1ccc2nc(Nc3ccccc3)c(Nc3ccccc3)nc2c1`, the outcome was inactive.

For `Cc1ccc(C)c(NC(=O)CC/C(=N\NC(=O)C(N)=O)C(C)C(=O)c2ccc(O)cc2)c1` (stereo unspecified), the EC50 was more than 155 µM and the 50% inhibitory concentration (IC50) is more than 155 µM.

`CC[C@@]1(O)C(=O)OCc2c1cc1n(c2=O)Cc2cc3cc4c(cc3nc2-1)OCO4`: the EC50 is more than 0.002 µM and the IC50 came to 0.000331 µM.

As for `CC1CCCC2=C1C(=O)N(CSCN1C(=O)C3=C(C1=O)C(C)CCC3)C2=O` (stereo unspecified), the EC50 was more than 200 µM and the IC50 is 141 µM.

On to `Clc1ccccc1C1=NN(c2ccccc2)C2c3cc(Br)ccc3OCC12` (stereo unspecified), for which the EC50 is more than 81.3 µM and the concentration for half-maximal inhibition (IC50) is more than 81.3 µM.

As for `CC(C)OP(=O)(OC(C)C)c1ccc2c(c1)OCCOCCOCCOCCO2`, the EC50 was more than 200 µM and the IC50 is more than 200 µM.

For `Cc1ccc(C(=C2Sc3ccccc3S2)C(=C2Sc3ccccc3S2)c2ccc(C)s2)s1`, the EC50 is more than 200 µM and the IC50 was more than 200 µM.

For the compound `O=C(c1ccccc1)C(Nc1nc2nc(-c3ccccc3)c(-c3ccccc3)n2[nH]1)c1ccccc1` (stereo unspecified), the EC50 is more than 200 µM and the IC50 was 27.5 µM.

Consider `OCC(O)C(O)C(O)C(O)c1nn[nH]n1` (stereo unspecified), for which the result was inactive.

As for `O=C(N[C@@H](c1ccccc1)[C@@H](O)C(=O)OCc1ccc([N+](=O)[O-])cc1)c1ccccc1`, the EC50 is more than 200 µM and the concentration for half-maximal inhibition (IC50) was 151 µM.

In the case of `COC1/C=C/OC2(C)Oc3c(C)c(O)c4c(O)c(cc(OCC(=O)N5CCOCC5C)c4c3C2=O)NC(=O)/C(C)=C/C=C/C(C)C(O)C(C)C(O)C(C)C(OC(C)=O)C1C` (stereo unspecified), the EC50 was more than 200 µM and the IC50 was found to be 36.3 µM.

In the case of `Oc1cc(Br)cc2cc(Br)cnc12`, the outcome was inactive.

For `CN(C)CCNC(=O)Cn1ccc(=O)c2ccc([N+](=O)[O-])cc21`, the EC50 is more than 200 µM and the IC50 is more than 200 µM.

Regarding `O=C(ON=C1c2ccccc2C(Br)C(Br)c2ccccc21)c1ccccc1` (stereo unspecified), the EC50 was more than 200 µM and the IC50 came out at 3.31 µM.

Consider `COC(=O)C(CC1=C(O)Nc2ccccc2N1)/C(=N/NC(N)=O)C(=O)Nc1ccccc1C` (stereo unspecified), for which the result was inactive.

Take `COc1cc(N=Nc2ccccc2)cc(/C=N/NC(N)=S)c1O`: the result was inactive.

Consider `O=C1[C@@H](O)[C@@H]2CCCC[C@@]23CCCN13`, for which the EC50 was more than 200 µM and the IC50 was more than 200 µM.

As to `OCC1CC(F)C(n2cnc3c(NC4CC4)ncnc32)O1` (stereo unspecified), the EC50 is more than 200 µM and the IC50 was more than 200 µM.

Turning to `CC(=O)c1c2c(cc3c1CC1(C3)Cc3cc4c(c(C(=O)O)c3C1)CCCC4)CCCC2` (stereo unspecified) (tested in a mixture with another compound), the EC50 was more than 200 µM and the IC50 was 38.9 µM.

`Oc1c(Cl)cc(Cl)c2cccnc12`: the result was inactive.

Take `CC(C)OP(=O)(CCCCCCCCC/C=C/c1ccc2c(c1)OCCOCCOCCOCCO2)OC(C)C`: the EC50 is more than 200 µM and the concentration for half-maximal inhibition (IC50) was determined as 12.3 µM.

Turning to `O=C(Sc1c(-c2ccccc2)c(=O)n(-c2ccccc2)c(=S)n1-c1ccccc1)c1ccco1`, the EC50 was more than 200 µM and the IC50 worked out at 34.7 µM.

Regarding `CC(=O)OC1C(CCl)OC(N=[N+]=[N-])C(OC(C)=O)C1OC(C)=O` (stereo unspecified), the outcome was inactive.

In the case of `CN(C)c1ccc2c(c1)-c1cc(N(C)C)ccc1C2=CC=C1C(=O)NC(=S)NC1=O`, the EC50 is more than 12.3 µM and the IC50 was more than 12.3 µM.

Turning to `OC1CC2C=CCC(C1)C2` (stereo unspecified), the outcome was inactive.

As for `ClC(Cl)[Si]12OCCN(CCO1)CCO2`, the result was inactive.

Turning to `NCC1OC(OC2C(CO)OC(OC3C(O)C(N)CC(N)C3OC3OC(CO)C(O)CC3N)C2O)C(N)C(O)C1OC1OC(CO)C(O)C(O)C1O` (stereo unspecified), the outcome was inactive.

With `O=C(c1ccccc1)c1cc(Cl)ccc1NCn1nnc2ccccc21`, the EC50 is more than 200 µM and the IC50 was 35.5 µM.

On to `O=C(c1cc(Cl)c(O)c(C(=O)O)c1)c1cc(Cl)c(O)c(C(=O)O)c1`, for which the EC50 was more than 61.7 µM and the IC50 came out at 56.2 µM.

Turning to `CCOC(=O)C1=CC(C(=O)OCC)C2C=CC1N2C(=O)OC` (stereo unspecified), the outcome was inactive.

Consider `OCCCCCCCCCCCOc1ccc(C2OCC3(CC=CCC3)CO2)cc1` (stereo unspecified), for which the EC50 was more than 200 µM and the 50% inhibitory concentration (IC50) is 36.3 µM.

On to `CC(=O)NNc1nc(C)c(C(=O)NNC(=O)C(=O)Nc2c(C)cccc2C(C)C)s1`, for which the EC50 was more than 60.3 µM and the IC50 is 52.5 µM.

As for `C1=C\C=C\C2OC2/C=C/1` (stereo unspecified), the EC50 was more than 224 µM and the IC50 worked out at 112 µM.
